Data on 20 compounds can be found in patent US8466153B2, “Piperidinylamino-pyridazines and their use as fast dissociating dopamine 2 receptor antagonists” (Janssen Pharmaceutica N.V., priority 2006, dated 2013).

Read-outs that look alike come from different tables or passages of the source.

In series [1] the target is T1, human Dopamine D2L receptor (Homo sapiens, UniProt P14416).
T1 construct: expressed in transfected cells; host or cells: CHO cells
The series is described as follows: In vitro binding affinity for human D2L receptor ([3H]spiperone competition). The note with it: membranes of human D2L receptor-transfected CHO cells, 30 min, 37° C. An excerpt:
In order to find antipsychotic compounds active against positive symptoms and having an improved safety profile (low EPS incidence and no metabolic disorders), we have screened for compounds selectively interacting with the dopamine D2 receptor and dissociating fast from this receptor. Compounds were first screened for their D2 affinity in a binding assay using [^3H]spiperone and human D2L receptor cell membranes.
Frozen membranes of human Dopamine D2L receptor-transfected CHO cells were thawed, briefly homogenised using an Ultra-Turrax T25 homogeniser and diluted in Tris-HCl assay buffer containing NaCl, CaCl2, MgCl2, KCl (50, 120, 2, 1, and 5 mM respectively, adjusted to pH 7.7 with HCl) to an appropriate protein concentration optimised for specific and non-specific binding. Radioligand [^3H]Spiperone (NEN, specific activity ˜70 Ci/mmol) was diluted in assay buffer at a concentration of 2 nmol/L. Prepared radioligand (50 μl), along with 50 μl of either the 10% DMSO control, Butaclamol (10^−6 mol/l final concentration), or compound of interest, was then incubated (30 min, 37° C.) with 400 μl of the prepared membrane solution. Membrane-bound activity was filtered through a Packard Filtermate harvester onto GF/B Unifilterplates and washed with ice-cold Tris-HCl buffer (50 mM; pH 7.7; 6×0.5 ml). Filters were allowed to dry before adding scintillation fluid and counting in a Topcount scintillation counter. Percentage specific bound and competition binding curves were calculated using S-Plus software (Insightful).

In a further series the target is T2, human D2L receptor (Homo sapiens, UniProt P14416).
T2 construct: expressed in transfected cells
The series is described as follows: Fast dissociation (indirect [3H]spiperone filter assay). The format is binding. To be noted: compound at 4 times its IC50 pre-incubated 1 h at 25° C.; [3H]spiperone 1 nM on filter for 5 minutes. The protocol:
Compounds were first screened for their D2 affinity in a binding assay using [^3H]spiperone and human D2L receptor cell membranes.
Immediately after, the vacuum was released. 0.4 ml of pre-warmed buffer (25° C.) containing 1 nM [^3H]spiperone was added on the filter for 5 minutes. The incubation was stopped by initiating the vacuum and immediate rinsing with 2×5 ml of ice-cold buffer. The filter-bound radioactivity was measured in a liquid scintillation spectrometer. The principle of the assay is based on the assumption that the faster a compound dissociates from the D2 receptor, the faster [^3H]spiperone binds to the D2 receptor.

In series [2] the test system is Apomorphine-induced agitation, stereotypy in rats. The series is described as follows: Inhibition of the apomorphine induced agitation test in rats. The format is in vivo. The note with it: Rattus norvegicus, 0.5 h, apomorphine 1.0 mg/kg i.v. at 30 min, male Wiga Wistar rats. As to the method:
Male Wiga Wistar rats (180-280 g) were administered test compound (sc: subcutaneously; po: orally; n=3 per dose; dose=0.16, 0.63 and 2.5 mg/kg) or solvent and then challenged with apomorphine (1.0 mg/kg, i.v.) at 30 min. The effects of the test compound on the behavioral changes were evaluated according to all-or-none criteria based on the distribution of results in a large series of control data obtained in solvent-pretreated rats.
Apomorphine (1.0 mg/kg, i.v.)-induced agitation, stereotypy (compulsive sniffing, licking, chewing), was scored every 5 min over the first hour after injection of apomorphine. The score system was: (3) pronounced, (2) moderate, (1) slight, and (0) absent. […] The table below gives the lowest active dose at which 3 out of 3 rats tested met one of the criteria for drug-induced inhibition of agitation.

For series [3], the system named is panel of more than 50 common G-protein coupled receptors (CEREP). The series is described as follows: Screen in a panel of more than 50 common G-protein coupled receptors (CEREP). It is filed as binding. To be noted: panel of more than 50 GPCRs. The text has this:
Selected compounds E15, E16, E17 and E18 were further screened in a panel of more than 50 common G-protein coupled receptors (CEREP) and found to have a clean profile, that is to have low affinity for the tested receptors.

Where [4] appears, read: po, orally, read-out: po Dose: lowest active dose at which 3 out of 3 rats met a criterion for inhibition of agitation.
Setting [5] is: sc, subcutaneously, read-out: sc Dose: lowest active dose at which 3 out of 3 rats met a criterion for inhibition of agitation.

T1 sequence (P14416 whole entry): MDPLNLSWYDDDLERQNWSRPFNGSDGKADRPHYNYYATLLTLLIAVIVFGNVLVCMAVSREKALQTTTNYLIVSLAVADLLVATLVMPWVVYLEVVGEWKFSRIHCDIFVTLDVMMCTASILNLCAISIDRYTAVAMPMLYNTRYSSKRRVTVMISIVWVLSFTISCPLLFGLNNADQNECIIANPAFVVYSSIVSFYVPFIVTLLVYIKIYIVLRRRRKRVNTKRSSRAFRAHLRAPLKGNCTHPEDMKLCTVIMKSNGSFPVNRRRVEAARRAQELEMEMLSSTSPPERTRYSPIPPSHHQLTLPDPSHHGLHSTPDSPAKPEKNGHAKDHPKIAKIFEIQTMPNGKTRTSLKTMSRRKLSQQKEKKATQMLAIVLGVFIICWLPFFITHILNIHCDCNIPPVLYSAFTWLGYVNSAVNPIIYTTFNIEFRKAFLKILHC
T2 sequence (P14416 whole entry): as above

What is called IC50 is the concentration that gives 50% inhibition. Higher therefore signals lower potency. A word on the melting point: it is the temperature of the solid-liquid transition. `N#Cc1ccc(NC2CCN(Cc3cccc(C(F)(F)F)c3)CC2)nn1` [Example E16, 6-[1-(3-Trifluoromethyl-benzyl)-piperidin-4-ylamino]-pyridazine-3-carbonitrile] registered a melting point of 170.3 °C. The compound also gave an IC50 in series [1] of 1.41 µM. Further, the “% Dissociation” value at human D2L receptor turned out to be 79.50%. Moreover, in series [2] (setting [4]), the minimal effective dose was 0.63 mg/kg. For the same compound, the minimal effective dose in series [2] (setting [5]) amounted to 0.63 mg/kg. In addition, the “affinity profile for the tested receptors” value (from here on “affinity profile”) in series [3] was “low affinity”.

`N#Cc1ccc(NC2CCN(Cc3ccc(C(F)(F)F)c(F)c3)CC2)nn1` [Example E8, 6-[1-(3-Fluoro-4-trifluoromethyl-benzyl)-piperidin-4-ylamino]-pyridazine-3-carbonitrile] displayed a melting point of 178.6 °C. Besides, in series [1], the concentration for half-maximal inhibition (IC50) is 7.59 µM. In addition, at human D2L receptor, the “% Dissociation” value is 89.50%. Besides, the minimal effective dose in series [2] (setting [4]) is 2.5 mg/kg. Further, the minimal effective dose in series [2] (setting [5]) was found to be 2.5 mg/kg.

Consider `N#Cc1ccc(NC2CCN(Cc3ccccc3)CC2)nn1` [Example D2, 6-(1-Benzyl-piperidin-4-ylamino)-pyridazin-3-carbonitrile], for which the IC50 in series [1] is 2.95 µM. Moreover, in series [2] (setting [5]), the minimal effective dose came to 2.5 mg/kg.

`N#Cc1ccc(NC2CCN(Cc3cc(F)c(F)c(F)c3)CC2)nn1` [Example E18, 6-[1-(3,4,5-Trifluoro-benzyl)-piperidin-4-ylamino]-pyridazine-3-carbonitrile]: the melting point was 185 °C. Also, the IC50 in series [1] was 5.75 µM. The “% Dissociation” value on human D2L receptor was 95%. For the same compound, the minimal effective dose in series [2] (setting [4]) came to 1.25 mg/kg. For the same compound, in series [2] (setting [5]), the minimal effective dose amounted to 0.63 mg/kg. Besides, the “affinity profile” value in series [3] was “low affinity”.

In turn, `N#Cc1ccc(NC2CCN(Cc3cc(F)cc(C(F)(F)F)c3)CC2)nn1` [Example E17, 6-[1-(3-Fluoro-5-trifluoromethyl-benzyl)-piperidin-4-ylamino]-pyridazine-3-carbonitrile] came in with a melting point of 151.4 °C. The same compound gave an IC50 in series [1] of 3.02 µM. Moreover, the “% Dissociation” value on human D2L receptor stood at 73%. Moreover, the minimal effective dose in series [2] (setting [4]) came out at 1.25 mg/kg. The minimal effective dose in series [2] (setting [5]) is 0.63 mg/kg. For the same compound, the “affinity profile” value in series [3] is “low affinity”.

Compound `N#Cc1ccc(NC2CCN(Cc3ccc(C(F)(F)F)cc3)CC2)nn1` [Example E7, 6-[1-(4-Trifluoromethyl-benzyl)-piperidin-4-ylamino]-pyridazine-3-carbonitrile] showed a melting point of 243.1 °C. The IC50 in series [1] was above 10 µM. Besides, the “% Dissociation” value at human D2L receptor worked out at 93.50%. Also, in series [2] (setting [4]), the minimal effective dose amounted to 2.5 mg/kg. In series [2] (setting [5]), the minimal effective dose is 0.63 mg/kg.

With `N#Cc1ccc(NC2CCN(Cc3ccc(F)cc3)CC2)nn1` [Example E2, 6-[1-(4-Fluoro-benzyl)-piperidin-4-ylamino]-pyridazine-3-carbonitrile], the melting point turned out to be 187.44 °C. The compound further gave an IC50 in series [1] of 3.24 µM. For the same compound, the minimal effective dose in series [2] (setting [4]) was 0.63 mg/kg. Moreover, the minimal effective dose in series [2] (setting [5]) was determined as 0.63 mg/kg.

The compound `Cc1ccc(CN2CCC(Nc3ccc(C#N)nn3)CC2)cc1` [Example E6, 6-[1-(4-Methyl-benzyl)-piperidin-4-ylamino]-pyridazine-3-carbonitrile] showed a melting point of 191.62 °C. In addition, the IC50 in series [1] is 0.955 µM. At human D2L receptor, the “% Dissociation” value was 84%. In series [2] (setting [5]), the minimal effective dose was 2.5 mg/kg.

`N#Cc1ccc(NC2CCN(Cc3ccc(F)c(C(F)(F)F)c3)CC2)nn1` [Example E9, 6-[1-(4-Fluoro-3-trifluoromethyl-benzyl)-piperidin-4-ylamino]-pyridazine-3-carbonitrile] registered a melting point of 183.1 °C. Further, the 50% inhibitory concentration (IC50) in series [1] is 6.76 µM. Further, in series [2] (setting [5]), the minimal effective dose amounted to 2.5 mg/kg.

Compound `Cc1ccc(CN2CCC(Nc3ccc(C#N)nn3)CC2)cc1C(F)(F)F` [Example E10, 6-[1-(4-Methyl-3-trifluoromethyl-benzyl)-piperidin-4-ylamino]-pyridazine-3-carbonitrile] came in with a melting point of 187.3 °C. Moreover, the IC50 in series [1] was 6.46 µM. For the same compound, the minimal effective dose in series [2] (setting [5]) is above 2.5 mg/kg.

Compound `N#Cc1ccc(NC2CCN(Cc3cc(C(F)(F)F)cc(C(F)(F)F)c3)CC2)nn1` [Example E11, 6-[1-(3,5-Bis-trifluoromethyl-benzyl)-piperidin-4-ylamino]-pyridazine-3-carbonitrile] showed a melting point of 125 °C. Also, the 50% inhibitory concentration (IC50) in series [1] is above 10 µM.

In turn, `Cc1c(C#N)nnc(NC2CCN(Cc3cc(F)cc(F)c3)CC2)c1C` [Example E19, 6-[1-(3,5-Difluoro-benzyl)-piperidin-4-ylamino]-4,5-dimethyl-pyridazine-3-carbonitrile] had an IC50 in series [1] of 1.82 µM. Further, at human D2L receptor, the “% Dissociation” value amounted to 83.66%. For the same compound, the minimal effective dose in series [2] (setting [4]) was determined as 2.5 mg/kg; in series [2] (setting [5]) it was 0.63 mg/kg.

In series [1], `Cc1cc(NC2CCN(Cc3cc(F)cc(F)c3)CC2)nnc1C#N` [Example E20, 6-[1-(3,5-Difluoro-benzyl)-piperidin-4-ylamino]-4-methyl-pyridazine-3-carbonitrile] showed a half-inhibitory concentration (IC50) of 6.17 µM. Moreover, the minimal effective dose in series [2] (setting [5]) came out at 2.5 mg/kg.

With `N#Cc1ccc(NC2CCN(Cc3cccc(F)c3)CC2)nn1` [Example E5, 6-[1-(3-Fluoro-benzyl)-piperidin-4-ylamino]-pyridazine-3-carbonitrile], the melting point came out at 190.3 °C. In addition, the IC50 in series [1] was 6.03 µM. Moreover, the minimal effective dose in series [2] (setting [5]) was found to be 2.5 mg/kg.

`N#Cc1ccc(NC2CCN(Cc3ccc(F)c(F)c3)CC2)nn1` [Example E1, 6-[1-(3,4-Difluoro-benzyl)-piperidin-4-ylamino]-pyridazine-3-carbonitrile] yielded a melting point of 189.86 °C. Further, the IC50 in series [1] was 4.07 µM. The minimal effective dose in series [2] (setting [5]) came out at 2.5 mg/kg.

As for `N#Cc1ccc(NC2CCN(Cc3cc(C(F)(F)F)ccc3F)CC2)nn1` [Example E12, 6-[1-(2-Fluoro-5-trifluoromethyl-benzyl)-piperidin-4-ylamino]-pyridazine-3-carbonitrile], the melting point was found to be 142.5 °C. In series [1], this compound had an IC50 of 6.31 µM. Besides, the minimal effective dose in series [2] (setting [5]) was above 2.5 mg/kg.

`N#Cc1ccc(NC2CCN(Cc3ccc(Cl)cc3)CC2)nn1` [Example E3, 6-[1-(4-Chloro-benzyl)-piperidin-4-ylamino]-pyridazine-3-carbonitrile] showed a melting point of 209.77 °C. In addition, the half-maximal inhibitory concentration (IC50) in series [1] was 1.05 µM. Besides, at human D2L receptor, the “% Dissociation” value was determined as 87%. The minimal effective dose in series [2] (setting [5]) was determined as 0.63 mg/kg.

In the case of `Cc1ccc(CN2CCC(Nc3ccc(C#N)nn3)CC2)cc1F` [Example E4, 6-[1-(3-Fluoro-4-methyl-benzyl)-piperidin-4-ylamino]-pyridazine-3-carbonitrile], the melting point turned out to be 171.84 °C. Besides, the IC50 in series [1] was 0.407 µM. In addition, on human D2L receptor, the “% Dissociation” value is listed as 82%. Further, the minimal effective dose in series [2] (setting [5]) came to 0.16 mg/kg.

With `N#Cc1ccc(NC2CCN(Cc3ccc(OC(F)(F)F)c(Cl)c3)CC2)nn1` [Example E14, 6-[1-(3-Chloro-4-trifluoromethoxy-benzyl)-piperidin-4-ylamino]-pyridazine-3-carbonitrile], the IC50 in series [1] is above 10 µM.

On to `N#Cc1ccc(NC2CCN(Cc3cccc(Cl)c3)CC2)nn1` [Example E13, 6-[1-(3-Chloro-benzyl)-piperidin-4-ylamino]-pyridazine-3-carbonitrile], for which the melting point stood at 151 °C. In addition, in series [1], the IC50 is 3.24 µM. Moreover, the minimal effective dose in series [2] (setting [5]) was found to be 2.5 mg/kg.
